Consider 13 compounds from PubChem BioAssay (NCI).

Each structure is given as a SMILES string. Where “and” joins values, the source holds several entries; their conditions need not be identical. Equal entries are not always repeated.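 Tested at 5 concentrations; 48 h exposure; 96-well plates; endpoints linearly interpolated, else capped at highest concentration. GI50 is the concentration that inhibits growth by half. TGI: concentration producing complete growth inhibition.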 Some results are limits rather than exact numbers.

Test in all cases: NCI tumour cell line growth inhibition, 48 h
Test [1] deals with A549 NSCLC.
In test [2] the test system is T-47D breast.
Test [3] deals with NCI/ADR-RES ovarian.
Test [4] has as its system OVCAR-4 ovarian.
The test system of test [5] is NCI-H522 lung.
Test [6] concerns M14 melanoma.
Test [7] has as its system MDA-MB-435.
Test [8] concerns SF-539 CNS.
The subject of test [9] is SW-620 colon.
In test [10] the test system is CCRF-CEM leukemia.

With `CC(=O)N1c2ccccc2Sc2cc(C(O)(C(F)(F)F)C(F)(F)F)ccc21`, the TGI in [1], in [2], in [3], in [4], in test [5] and in test [6] was > 10 µM each time. The TGI in test [7], in [8], in test [9] and in [10] was > 10 µM in each case.

For the compound `O=C1CCC2(C=C(Br)C(=O)C(Br)=C2)O1`, the GI50 is 24.5 µM in test [1]; 2.22 µM in [2]; 16.2 µM in test [3]; 2.08 µM in [4]; 0.31 µM in test [5]; 11.8 µM in [6]. The GI50 in test [7] is 4.84 µM; in test [8], 2.63 µM; in test [9] it was 1.81 µM; in [10], 1.97 µM. Also, the TGI was found to be 67.3 µM in test [1]; 5.04 µM in [2]; 37.3 µM in test [3]; 4.34 µM in test [4]; 1.05 µM in test [5]; 24.7 µM in test [6]. Further, the TGI in test [7] was 11.3 µM; in test [8], 7.14 µM; in test [9] it was 3.54 µM; in [10], 6.25 µM.

For `N=C(N)CCCCCCCCC(=N)N`, the GI50 in test [1] was 6.6 µM; in test [2], 25 µM; in [3], 14.8 µM; in test [4], 44.4 µM; in test [5], 41.4 µM; in test [6], 56.7 µM. The GI50 was > 100 µM in [7], 35.4 µM in test [8], 32.5 µM in test [9] and 44.6 µM in test [10]. Besides, the TGI in [1], in test [2], in test [3], in test [4], in [5] and in [6] was > 100 µM in each case. Besides, the TGI in [7], in [8], in [9] and in test [10] was > 100 µM throughout.

Turning to `CNC(=O)c1cccc(-c2ccc3c(N4CCOC[C@@H]4C)nc(N4CCOC[C@@H]4C)nc3n2)c1`, the GI50 in [1] was 0.124 µM and 0.242 µM and 0.142 µM; in test [2], 0.0168 µM and 0.0287 µM and 0.0186 µM; in test [3], 0.24 µM and 0.412 µM and 0.371 µM; in test [5], 0.0505 µM and 0.0991 µM and 0.0479 µM; in test [6], 0.047 µM and 0.177 µM and 0.133 µM; in [7] it was 0.0925 µM and 0.204 µM and 0.147 µM. Also, the GI50 in test [8] is 0.15 µM and 0.166 µM and 0.125 µM; in [9], 0.26 µM and 0.356 µM and 0.293 µM; in test [10] it was 0.177 µM and 0.217 µM and 0.163 µM. Also, the TGI was > 100 µM and > 10 µM and 11.5 µM in test [1]; 0.246 µM and 0.212 µM and 0.103 µM in [2]; 3.56 µM and 5.12 µM and > 25.1 µM in test [3]; > 100 µM in [5]; 44.5 µM and > 6.82 µM and 14.9 µM in [6]; 1.8 µM and 1.34 µM and 1.27 µM in test [7]. Also, the TGI in test [8] was 1.49 µM and 1.26 µM and 0.677 µM; in [9] it was > 100 µM; in test [10], > 100 µM.

Regarding `O=C1c2ccccc2-c2c1c1ccccc1c(=O)n2CCCN1CCOCC1`, the GI50 was 26.2 µM in [1]; 19.6 µM in test [2]; 18.2 µM in test [3]; > 100 µM in test [4]; 10.1 µM in test [5]; 99.2 µM in test [6]. Also, the GI50 in test [7] was > 100 µM; in [8] it was 6.65 µM; in test [9], 20.2 µM; in test [10], > 38.4 µM. Moreover, the TGI is > 100 µM in [1]; 97.4 µM in [2]; > 100 µM in test [3]; > 100 µM in [4]; > 63.3 µM in [5]; > 100 µM in [6]. Moreover, the TGI in [7] was > 100 µM; in test [8], 19.6 µM; in test [9] it was > 100 µM; in [10], > 100 µM.

For `Cc1cc2c(F)c(Oc3ncnn4cc(OC[C@@H](C)OC(=O)[C@H](C)N)c(C)c34)ccc2[nH]1`, the GI50 in test [1] was 8.86 µM; in test [2] it was 13.4 µM; in test [3] it was 9.79 µM; in test [4] it was 11.3 µM; in test [5], 11.1 µM; in test [6] it was 12.3 µM. For the same compound, the GI50 in test [7] is 11.3 µM; in test [8], 4.81 µM; in test [9] it was 6.33 µM; in test [10], 5.96 µM. Moreover, the TGI in [1] is 23.3 µM; in test [2], 31.7 µM; in [3], 30.2 µM; in test [4], 23.8 µM; in [5] it was 24.7 µM; in test [6], 25.7 µM. The TGI in [7] came to 23.8 µM; in test [8] it was 17.3 µM; in [9], 19.7 µM; in test [10] it was 23.1 µM.

For `COc1ccc(-c2cn[nH]c2-c2cc(OC)c(OC)c(OC)c2)cc1N`, the GI50 was < 0.01 µM and 0.0425 µM in [1]; 17.1 µM and 25 µM in test [2]; < 0.01 µM and 0.0379 µM in test [3]; 0.013 µM and 0.0877 µM in test [4]; < 0.01 µM in test [5]; < 0.01 µM and 0.0247 µM in [6]. Besides, the GI50 was < 0.01 µM in test [7]; < 0.01 µM in [8]; < 0.01 µM and 0.0397 µM in test [9]; < 0.01 µM and 0.0347 µM in [10]. Moreover, the TGI in test [1] is > 100 µM; in test [2], 77.4 µM and > 100 µM; in test [3], > 100 µM; in [4], > 100 µM; in test [6], > 100 µM; in test [7] it was < 0.01 µM and 0.0309 µM. The TGI in test [8], in test [9] and in [10] was > 100 µM in each case.

In the case of `C[C@H]1CCC/C=C/[C@@H]2C[C@H](O)C[C@H]2[C@H](O)[C@@H](S(=O)CCN(C)C)CC(=O)O1` (stereo not given in full), the GI50 was 0.178 µM in test [1]; 0.338 µM in test [2]; 0.0629 µM in test [3]; 0.219 µM in [4]; 0.0677 µM in test [5]; 0.111 µM in test [6]. In addition, the GI50 in [7] is 0.193 µM; in [8], 0.151 µM; in [9] it was 0.277 µM; in [10], 0.388 µM. For the same compound, the TGI was > 100 µM in test [1]; > 100 µM in [3]; > 100 µM in test [4]; 0.191 µM in test [5]; > 59.3 µM in test [6]; > 100 µM in test [7]. Besides, the TGI in test [8] and in test [10] was > 100 µM throughout.

Turning to `S=C(Nc1ccc(Cl)cc1)Nc1ccc(-c2nc3ccccc3[nH]2)cc1`, the GI50 in [1] was 14.3 µM; in test [2], 5.34 µM; in [3], 17.2 µM; in test [4], 15.4 µM; in test [5], 4.63 µM; in test [6] it was 7.54 µM. The GI50 in test [7] is 9.11 µM; in test [8], 5.27 µM; in [9], 22.4 µM; in [10], 4.37 µM. Further, the TGI in test [1] was > 54.3 µM; in [2], 32.7 µM; in [3] it was > 57.4 µM; in test [4], > 84.3 µM; in test [5], 13.3 µM; in [6], > 42 µM. Also, the TGI is 26.6 µM in [7], 13.5 µM in [8], > 58.8 µM in test [9] and > 63.6 µM in test [10].

With `C[C@]12CCC(=O)C(O)=C1CC[C@@H]1[C@@H]2CC[C@]2(C)C(=O)CC[C@@H]12`, the TGI in test [1], in [2], in test [3], in [4], in test [5] and in [6] was > 100 µM each time. Moreover, the TGI in test [7], in test [8], in [9] and in test [10] was > 100 µM in each case.

Take `COC(=O)C(Nc1ccc(OC)cc1)c1ccccc1` (stereo not given): the TGI in test [1], in [2], in [3], in [5], in test [6] and in test [7] was > 100 µM each time. Moreover, the TGI in test [8], in test [9] and in [10] was > 100 µM throughout.

Regarding `O=C1C=Cc2ccccc2/C1=C/c1[nH]c(=O)[nH]c1O`, the GI50 in test [1] is 19.8 µM; in [2], 2.5 µM; in test [3], 20.3 µM; in [4] it was 4.22 µM; in test [5], 1.3 µM; in test [6], 4.42 µM. The GI50 in [7] is 1.76 µM; in [8], 3.38 µM; in test [10] it was 4.01 µM. Also, the TGI in test [1] was 61.6 µM; in test [2], 25.6 µM; in [3], > 100 µM; in test [4] it was 23.4 µM; in test [5], 3.89 µM; in [6], > 100 µM. Besides, the TGI in test [7] is 4.64 µM; in test [8], 16.8 µM; in test [10], > 100 µM.

For `O=C(C(Br)Br)C(Br)C(Br)c1ccccc1` (stereo not given), the GI50 in test [1] is 20.4 µM; in test [2], 2.75 µM; in test [3], 5.23 µM; in test [5], 1.81 µM; in test [6], 2.5 µM; in test [7], 2.67 µM. Moreover, the GI50 in test [8] is 2.43 µM; in test [9], 2.03 µM; in [10], 0.536 µM. Besides, the TGI in [1] is 52.4 µM; in test [2], 9.69 µM; in test [3], 72.4 µM; in [5] it was 3.48 µM; in test [6] it was 6.33 µM; in test [7], 8.21 µM. Besides, the TGI was 7.84 µM in test [8], 4.19 µM in [9] and 2.66 µM in [10].
